Converted amounts (≈) assume the structure as drawn. Counter-ions that a name gives are not always drawn. Like-named read-outs stand apart in the source and are kept apart here. Bounds are passed on as bounds.

For data set [1], the target named is hERG channel (Homo sapiens, UniProt Q12809). Description: hERG manual patch clamp assay. The data set is classed as cell-based. To be noted: HEK 293 cells stably expressing hERG channel, pH 7.35, 10 μM compound. As to the method:
Cell Lines and Cell Culture
HEK 293 cell line stably expressing hERG channel (Cat # K1236) was purchased from Invitrogen. The cells were cultured in 85% DMEM, 10% dialyzed FBS, 0.1 mM NEAA, 25 mM HEPES, 100 U/mL Penicillin-Streptomycin and 5 μg/mL Blasticidin and 400 μg/mL Geneticin. Cells were split using TrypLE™ Express about three times a week, and maintained between ˜40% to ˜80% confluence. Before the assay, the cells were transferred onto the coverslips at 5×10^5 cells/per 6 cm cell culture dish and induced with doxycycline at 1 μg/mL for 48 hours.
• 1) External solution (in mM): 132 NaCl, 4 KCl, 3 CaCl2, 0.5 MgCl2, 11.1 glucose, and 10 HEPES (pH adjusted to 7.35 with NaOH) • 2) Internal solution (in mM): 140 KCl, 2 MgCl2, 10 EGTA, 10 HEPES and 5 MgATP (pH adjusted to 7.35 with KOH) • 3) hERG currents were tested in presence of 10 μM compound concentration with final concentration of DMSO of 0.1%. Experimental Procedure • 1) Removed the coverslip from the cell culture dish and placed it on the microscope stage in bath chamber. • 2) Located a desirable cell using the 10× objective. Located the tip of the electrode under the microscope using the 10× objective by focusing above the plane of the cells. Once the tip was in focus, advanced the electrode downwards towards the cell using the coarse controls of the manipulator, while simultaneously moving the objective to keep the tip in focus. • 3) When directly over the cell, switched to the 40× objective and used the fine controls of the manipulator to approach the surface of the cell in small steps. • 4) Applied gentle suction through the side-port of the electrode holder to form a gigaohm seal. • 5) Used the Cfast to remove the capacity current that was in coincidence with the voltage step. Obtained the whole cell configuration by applying repetitive, brief, strong suction until the membrane patch ruptured. • 6) Set membrane potential to −60 mV at this point to ensure that hERG channels were not • open. The spikes of capacity current should then be cancelled using the Cslow on the amplifier. 7) Set holding potential to −90 mV for 500 ms; recorded current at 50 kHz and filtered at 10 kHz. Leaking current was tested at −80 mV for 500 ms. • 8) The hERG current was elicited by depolarizing at +30 mV for 4.8 seconds and then the voltage was taken back to −50 mV for 5.2 seconds to remove the inactivation and observe the deactivating tail current. The maximum amount of tail current size was used to determine hERG current amplitude. • 9) Recorded current for 120 seconds to assess the current stability. Only stable cells with recording parameters above threshold were applied for the compound administrations. • 10) Firstly vehicle control was applied to the cells to establish the baseline. […] In order to ensure the good performance of cultured cells and operations, the positive control, Dofetilide, with 5 dose concentration was also used to test the same batch of cells. Data Analysis
The following criteria were used to determine data acceptability. • 1) Initial seal resistance >1 GΩ; • 2) Leak currents <50% of the control peak tail currents at any time; • 3) The peak tail amplitude >250 pA; • 4) Membrane resistance Rm>500 MΩ; • 5) Access resistance (Ra)<10 MΩ; • 6) Apparent run-down of peak current <2.5% per min.
Data that met the above criteria for hERG current quality were further analyzed as the following steps. • 1) Percent hERG current inhibition was calculated using the following equation. • Note: PatchMaster or Clampfit software was used to extract the peak current from the original data.
[formula] • 2) The dose response curve of test compounds was plotted with percentage of hERG current inhibition against the concentration of test compounds using Graphpad Prism 6.0, and fit to a sigmoid dose-response curve with a variable slope.

In data set [2] the test system is Human Heme Oxygenase-1 (HMOX-1). Description: ELISA assay to measure human heme oxygenase-1 (HMOX-1) in HepG2 lysate. The class given is cell-based. The method, boiled down:
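HO-1 protein levels were read as fold change over DMSO-treated cells, with EC50 derived from these values. Quantitation used a chemiluminescent streptavidin-HRP capture ELISA, calibrated with an HO-1 standard series starting at 20 ng/ml, run at 20 °C. Samples were HepG2 lysates made with Triton X100/EDTA buffer and diluted 1:20.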

The nature of data set [3]: PK study: plasma and brain levels in mice. The class given is in vivo, C57BL/6 mice. Conditions: mouse, plasma, measured in a previous study.
A short description of data set [4]: PD study: compound concentration in mouse liver. The class given is in vivo, C57BL/6 mice. Conditions: male, C57BL/6, mouse, 50 mg/kg, 50 mpk oral. As to the method:
9-10 week old male C57BL/6 mice were dosed orally with 50 mg/kg of vehicle or compound formulated in 5% w/v tween 80 and 0.5% methyl cellulose. At indicated time points (3 and 6 hours or or 4 and 8 hours post-dosing as shown in the results below), whole blood was collected, animal was sacrificed and liver was collected. Blood samples were transferred to vials containing 4 μL of 10% w/v EDTA, centrifuged at 6000 rpm for 8 in below 10° C. to obtain plasma. Samples were frozen and later processed for HMOX1 protein levels as indicated below: […]

Data set [5] relates to FTH1. Description: FTH1 mRNA expression in HepG2 cells (Nanostring). To be noted: 24 hours treatment. The data set is classed as cell-based, human. As to the method:
RNA Isolation and Quantification of Gene Expression
HepG2 cells were seeded at 250 k/well in 12-well tissue culture plates coated with collagen (collagen I, rat tail (thin plate coating); ENZO Life Sciences) for approximately 24 hours. The seeded cells were then treated with dose titration of the compound of Example 17 or dimethyl fumarate (DMF) (a Nrf2 activator; Fisher Scientific) via media change, with biological triplicates performed for each treatment. After approximately 24 hours of treatment, cells were visually inspected to confirm that no toxicity occurred with compound treatment. The treated cells were washed with PBS, aspirated, parafilmed and frozen at −80° C. prior to RNA isolation. RNA was isolated using Machery-Nagel isolation kit (NucleoSpin® RNA: catalog 740955.250) and then quantitated using ThermoFisher Nanodrop.
RNA was diluted for Nanostring gene expression analysis. The diluted RNA at an input of 200 ng RNA was run on a Nanostring instrument, which was supported with nCounter® SPRINT Profiler System and nSolver4.0 Software, nCounter® SPRINT Cartridge, nCounter® SPRINT Reagent Pack, and nCounter® SPRINT Hybridization Buffer. Analysis was done manually using raw data obtained from nSolver4.0 Software. CLTC, POLR2A, RPL27 and TBP were used as reference genes for normalization. Data was graphed as fold change compared to DMSO treatment. […]

The target of data set [6] is T1, Human BACH1 (Homo sapiens, UniProt O14867).
T1 construct: 10×HIS-GP-BACH1(aa179-736)-Thrombin-FLAG; 10xHis (N); GP linker (Gly-Pro) (N); Thrombin cleavage site (C); FLAG (C); host or cells: Sf9 insect cells
T1 sequence (O14867 179-736): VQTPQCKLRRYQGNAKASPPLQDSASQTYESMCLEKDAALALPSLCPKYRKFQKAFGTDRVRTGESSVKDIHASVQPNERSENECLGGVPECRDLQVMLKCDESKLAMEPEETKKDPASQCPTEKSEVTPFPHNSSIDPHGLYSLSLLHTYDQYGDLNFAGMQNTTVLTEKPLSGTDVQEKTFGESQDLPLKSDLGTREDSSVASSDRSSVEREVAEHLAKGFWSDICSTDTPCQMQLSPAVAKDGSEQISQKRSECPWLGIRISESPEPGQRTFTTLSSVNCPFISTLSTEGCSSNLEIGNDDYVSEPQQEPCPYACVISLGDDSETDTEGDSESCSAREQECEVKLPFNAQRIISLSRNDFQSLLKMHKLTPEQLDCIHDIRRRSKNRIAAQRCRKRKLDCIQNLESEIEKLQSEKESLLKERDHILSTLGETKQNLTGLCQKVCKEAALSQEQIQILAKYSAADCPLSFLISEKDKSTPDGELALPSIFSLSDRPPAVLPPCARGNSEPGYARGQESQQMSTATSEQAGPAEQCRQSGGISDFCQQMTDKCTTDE
Description: Microscale thermophoresis (MST) assay / Bach 1 binding assay. To be noted: 10 nM fluorescently labeled BACH1(aa179-736), 25° C. As to the method:
Example 146. Microscale Thermophoresis (MST) Assay/Bach 1 Binding Assay
Outline of Protein Expression/Production
Human BACH1 (construct-ID: 10×HIS-GP-BACH1(aa179-736)-Thrombin-FLAG) was expressed in Sf9 insect cells. Protein purification was performed using affinity chromatography, followed by size-exclusion chromatography. Quality of resulting protein was judged using SDS-PAGE analysis.
The MST technology is based on measurement of protein movement along a temperature gradient. Thereby, fluorescently labeled protein is loaded into capillaries, where an infrared laser heats a small volume. Before and during heating, fluorescent intensity is measured at the site of irradiation and the loss of fluorescence in the IR laser focus is quantified.
Two major factors contribute to change of fluorescence signal. First of all, the so-called TRIC (Temperature Related Intensity Change) effect is caused by the temperature-dependency of fluorophore's quantum yield. Herein, the extent of the temperature dependence depends on the chemical environment, which may be changed by the binding of a ligand (e.g. compound, peptide) to the target. Moreover, Kd value between ligand and target can depend on temperature. Second, thermophoresis, which is defined as movement of fluorescent molecules along temperature gradient, is a major contributor to change of fluorescence. Hereby, protein movement along the gradient depends on hydrodynamic radius, charge and hydration shell. These properties can change upon association of the labeled protein with another species, e.g. compound. Thereby, MST detects the differences in protein movement with increasing ligand concentration: from this, the fraction of ligand bound protein and a Kd value can be determined.
For Kd determination of compounds binding BACH1, the following protocol was applied: 10×HIS-GP-BACH1(aa179-736)-Thrombin-FLAG (expressed and purified at Proteros) was fluorescently labeled via its lysine-residues (2nd gen NHS-NT.647 dye).
Experiments were performed using the experimental device Monolith NT.115 Pico, NanoTemper Technologies, with MST power set to medium and excitation power set to 2% at a reaction temperature of 25° C.
10 nM fluorescently labeled BACH1 was applied to reaction buffer containing 50 mM HEPES pH 8.0, 100 mM NaCl, 5% glycerol, 0.05% Tween20 and 1 mM DTT in a reaction volume of 8 μL using Monolith NT.115 Premium Capillaries. Compounds were applied at a maximal concentration of 103 μM with 15 subsequent factor 2 dilutions.

Data set [7] can be described thus: Kinetic solubility. The class given is physicochemical. To be noted: Dulbecco's phosphate buffer saline (DPBS), aqueous buffer, kinetic from dmso stock, DPBS pH 7.4, 25° C., 200 μM test compound. The method, boiled down:
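Compound from 10 mM DMSO stock diluted to 200 μM final in DPBS pH 7.4 and, separately, in DMSO, in duplicate. Shaken 16 h at 25 °C, then centrifuged 20 min at 25 °C. Supernatant analysed by HPLC.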

The mark [8] stands for this setting: human HMOX1 protein level in HepG2 lysate, * = average of 2 or more EC50 determinations, NA = Not Active, read-out: EC50.

Sequence of hERG channel (Q12809 whole entry): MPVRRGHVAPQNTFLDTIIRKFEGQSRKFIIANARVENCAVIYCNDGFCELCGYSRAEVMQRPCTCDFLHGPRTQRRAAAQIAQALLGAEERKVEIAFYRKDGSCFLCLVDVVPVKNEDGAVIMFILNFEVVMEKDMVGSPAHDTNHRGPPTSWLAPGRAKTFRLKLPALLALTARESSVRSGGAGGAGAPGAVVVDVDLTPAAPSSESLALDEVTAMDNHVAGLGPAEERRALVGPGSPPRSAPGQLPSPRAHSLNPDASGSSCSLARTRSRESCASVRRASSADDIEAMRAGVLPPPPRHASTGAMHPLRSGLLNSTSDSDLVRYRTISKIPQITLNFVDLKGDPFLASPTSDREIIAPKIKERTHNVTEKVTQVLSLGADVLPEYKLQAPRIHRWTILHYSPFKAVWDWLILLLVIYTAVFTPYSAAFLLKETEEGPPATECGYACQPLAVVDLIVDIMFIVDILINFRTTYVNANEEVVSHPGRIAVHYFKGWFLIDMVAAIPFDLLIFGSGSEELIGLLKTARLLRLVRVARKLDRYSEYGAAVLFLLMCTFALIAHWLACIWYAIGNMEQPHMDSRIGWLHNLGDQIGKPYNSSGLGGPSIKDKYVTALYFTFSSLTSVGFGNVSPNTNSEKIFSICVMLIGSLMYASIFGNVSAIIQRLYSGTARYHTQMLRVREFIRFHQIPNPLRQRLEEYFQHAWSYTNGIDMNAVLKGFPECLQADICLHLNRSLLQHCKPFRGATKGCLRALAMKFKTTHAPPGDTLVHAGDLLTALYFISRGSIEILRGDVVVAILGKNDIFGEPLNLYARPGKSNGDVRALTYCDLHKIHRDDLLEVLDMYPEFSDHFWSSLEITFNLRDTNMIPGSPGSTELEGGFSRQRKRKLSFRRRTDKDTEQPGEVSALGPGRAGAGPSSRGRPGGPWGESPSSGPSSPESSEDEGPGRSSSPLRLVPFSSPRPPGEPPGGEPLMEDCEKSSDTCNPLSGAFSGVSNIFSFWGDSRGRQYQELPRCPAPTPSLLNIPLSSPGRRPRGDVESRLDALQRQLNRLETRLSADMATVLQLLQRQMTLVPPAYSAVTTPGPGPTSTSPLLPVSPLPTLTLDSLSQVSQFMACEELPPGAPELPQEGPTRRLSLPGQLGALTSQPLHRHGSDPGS

`Cn1c(Nc2nc3ccc(OC(F)(F)F)cc3s2)nc2cc(C(=O)NCCOCCO)ccc21` [Comparator 1, 1-methyl-2-(6-trifluoromethoxy-benzothiazol-2-ylamino)-1H-benzoimidazole-5-carboxylic acid [2-(2-hydroxy-ethoxy)-ethyl]-amide, reference compound] returned an inhibition at 10 µM in data set [1] of 66%. For the same molecule, the EC50 in data set [2] (HepG2, human HMOX1, as listed in Table 5, read-out: HMOX1 EC50 h) is 900 nM; in data set [2] (setting [8]), 900 nM. The same molecule gave a concentration at 1 h in data set [3] (1 hr) of 2070 ± 318 ng/mL. Further, the concentration at 4 h in data set [3] (4 hr) was 288 ± 124 ng/mL. For the same molecule, the concentration at 3 h in data set [4] (3 h, read-out: Liver Conc uM (3 h)) was 12.2 µM. In data set [4] (6 h, read-out: Liver Conc uM (6 h)), the concentration at 6 h came out at 1.3 µM.

In the case of `COC(=O)/C=C/C(=O)OC` [DMF, dimethyl fumarate, reference compound], in data set [5], the “FTH1 expression fold increase (in words)” value is reported as “comparable fold increases”.

With `Cn1c(Nc2nc3ccc(C(F)(F)F)cc3o2)nc2cc(C(=O)NCCO)ccc21` [Example 33, N-(2-hydroxyethyl)-1-methyl-2-((6-(trifluoromethyl)benzo[d]oxazol-2-yl)amino)-1H-benzo[d]imidazole-5-carboxamide], the EC50 in data set [2] (setting [8]) is 300 nM. Further, in data set [6], the Kd came to 260 nM. The same molecule showed a solubility at 16 h in data set [7] of 0.9 µM (≈ 0.377 µg/mL).

The molecule `COCCNC(=O)c1ccc2c(c1)nc(Nc1nc3ncccc3o1)n2C` [Example 112, N-(2-methoxyethyl)-1-methyl-2-(oxazolo[4,5-b]pyridin-2-ylamino)-1H-benzo[d]imidazole-5-carboxamide] yielded a Kd in data set [6] of 560 nM.

Consider `COCCONC(=O)c1ccc2c(c1)nc(Nc1nc3ccc(C(F)(F)F)cc3o1)n2C` [Example 124, N-(2-methoxyethoxy)-1-methyl-2-((6-(trifluoromethyl)benzo[d]oxazol-2-yl)amino)-1H-benzo[d]imidazole-5-carboxamide], for which the EC50 in data set [2] (setting [8]) turned out to be 200 nM. In data set [6], this molecule came in with a Kd of 200 nM. Also, the solubility at 16 h in data set [7] is less than 2 µM.

The record behind these values is patent US10766888B1, “HMOX1 inducers” (Mitobridge Inc., priority 2019, dated 2020).
